What was measured:
[1] = Compatibility and dissolution ability in potassium formate brine; assay type: physicochemical; conditions: for % Dissolved or precipitated out / Amount of carbonate remaining: 20% v/v breaker; for Amount of carbonate remaining: 2.5 g calcium carbonate, 16 hours, * = precipitation of formate salts
Experimental: In this Example, the compatibility and dissolution ability of various breaker systems with formate brine were evaluated. […] For each sample a 20% v/v breaker sample was prepared in three different concentrations of potassium formate brine (11 ppg, 12 ppg, and 13 ppg).
To determine the compatibility of each breaker with the potassium formate brine, each sample was checked for the formation of formate salts. This precipitation was indicative of an incompatibility of the breaker system with the formate brine. Samples in which precipitation was observed are noted with an asterisk (*).
The dissolution ability of the breaker systems was also tested in the various concentration of formate brine. […] The jars were then dried in an 90° F. oven for 16 hours. After the elapsed time, the amount of carbonate that remained was weighed and tabulated. The difference in weight represented the amount of carbonate that was dissolved by the breaker system and/or precipitated out as a result of being incompatible with the formate brine.

[2] = Initial and over time miscibility and pH in potassium formate brines; assay type: physicochemical; conditions: for After Static Aging: overnight 150° F.; for pH Final: static 16 hrs @ 150° F.
Experimental: Completion breaker solutions were to be tested at 5%, 10%, and 20% by volume concentrations in each of the brines. The initial miscibility and the miscibility after static aging overnight at 150° F. were observed. Also, the pH of the final mixes was measured. The different concentrations of the breaker solutions were prepared with fresh water and filtered through a 1.6 μm glass fiber filter prior to testing.
The tests were run by adding the appropriate volume of the test breaker (5%, 10%, or 20% by volume) to the volume of the test brine needed to total 100 ml in a 4 ounce jar, sealing it, and swirling to mix the components. Observation was noted of the compatibility of the components.

[3] = 5% by volume, potassium formate brine 11.0 lb/gal
[4] = 5% by volume, potassium formate brine 12.0 lb/gal
[5] = 5% by volume, potassium formate brine 13.0 lb/gal
[6] = 10% by volume, potassium formate brine 11.0 lb/gal
[7] = 10% by volume, potassium formate brine 12.0 lb/gal
[8] = 10% by volume, potassium formate brine 13.0 lb/gal
[9] = 20% by volume, potassium formate brine 11.0 lb/gal
[10] = 20% by volume, potassium formate brine 12.0 lb/gal
[11] = 20% by volume, potassium formate brine 13.0 lb/gal

With O=C(O)CC[C@@H](C(=O)O)N(CC(=O)O)CC(=O)O [GLDA, L-glutamic acid N,N-diacetic acid] the “compatibility with the formate brine” value ([1]; 20% v/v breaker, 11, 12 and 13 ppg potassium formate, precipitation of formate salts = incompatible) was “fully compatible with the formate brine”, the “% Dissolved or precipitated out” value ([1]; 11 ppg Potassium Formate) was 48% and the “Amount of carbonate remaining” value ([1]; 11 ppg Potassium Formate) was 1.05 g. For the same compound, the “% Dissolved or precipitated out” value ([1]; 12 ppg Potassium Formate) was 33%, the “Amount of carbonate remaining” value ([1]; 12 ppg Potassium Formate) was 1.67 g and the “% Dissolved or precipitated out” value ([1]; 13 ppg Potassium Formate) was 20%. The “Amount of carbonate remaining” value ([1]; 13 ppg Potassium Formate) was 2.00 g, the “Initial Observation” value [2, 3] was “Clear, totally soluble” and the “After Static Aging” value [2, 3] was “Clear, totally soluble”. For the same compound, the “pH Final” value [2, 3] was 12.7, the “Initial Observation” value [2, 4] was “Clear, totally soluble” and the “After Static Aging” value [2, 4] was “Clear, totally soluble”. For the same compound, the “pH Final” value [2, 4] was 13.3, the “Initial Observation” value [2, 5] was “Clear, totally soluble” and the “After Static Aging” value [2, 5] was “Clear, totally soluble”. The “pH Final” value [2, 5] was 13.8, the “Initial Observation” value [2, 6] was “Clear, totally soluble” and the “After Static Aging” value [2, 6] was “Clear, totally soluble”. For the same compound, the “pH Final” value [2, 6] was 13.3, the “Initial Observation” value [2, 7] was “Clear, totally soluble” and the “After Static Aging” value [2, 7] was “Clear, totally soluble”. For the same compound, the “pH Final” value [2, 7] was 14.4, the “Initial Observation” value [2, 8] was “Clear, totally soluble” and the “After Static Aging” value [2, 8] was “Clear, totally soluble”. For the same compound, the “pH Final” value [2, 8] was 15.0, the “Initial Observation” value [2, 9] was “Clear, totally soluble” and the “After Static Aging” value [2, 9] was “Clear, totally soluble”. The “pH Final” value [2, 9] was 13.7, the “Initial Observation” value [2, 10] was “Clear, totally soluble” and the “After Static Aging” value [2, 10] was “Clear, totally soluble”. The “pH Final” value [2, 10] was 14.7, the “Initial Observation” value [2, 11] was “Clear, totally soluble” and the “After Static Aging” value [2, 11] was “Clear, totally soluble”. For the same compound, the “pH Final” value [2, 11] was 15.4 and the “solubility / miscibility in the potassium formate brines” value ([2]; tested concentrations, 11.0-13.0 lb/gal brines) was “soluble in the tested concentrations of the potassium formate brine”.

Reference: patent US8881823B2, “Environmentally friendly low temperature breaker systems and related methods” (Halliburton Energy Services, Inc., priority 2011, dated 2014)
